Test results as given in patent US6979686B1, “Substituted pyrazoles as p38 kinase inhibitors” (Pharmacia Corporation, priority 2001, dated 2005).
Where two headings read alike, the source gives them in different places.

Columns and labels:
[1] = target: T1, human p38 kinase alpha (Homo sapiens, UniProt Q16539); assay: p38 kinase in vitro assay, phosphorylation of biotinylated PHAS-I with 32P-ATP; assay type: biochemical; details: for P38 alpha kinase % inhib @ conc.: @ 1.0 uM; for IC50: in vitro P38-alpha kinase inhibition, read-out: P38 alpha kinase IC50
T1 construct: GST (N, cleaved yes); made in house; host or cells: E. coli DH10B

[2] = test system: TNF-α, U937 human histiocytic lymphoma cell line; assay: LPS stimulation of TNF production by U937 cells; assay type: cell-based; details: for IC50: read-out: U937 Cell IC50; for inhibition at 1 µM: U-937, @ 1.0 uM, read-out: U937 Cell % inhib @ conc.
Description: Maintenance and Differentiation of the U937 Human Histiocytic Lymphoma Cell Line:
Fifty million cells in 100 ml media were induced to terminal monocytic differentiation by 24 hour incubation with 20 ng/ml phorbol 12-myristate 13-acetate (Sigma). The cells were washed by centrifugation (200×g for 5 min) and resuspended in 100 ml fresh medium. After 24-48 hours, the cells were harvested, centrifuged, and resuspended in culture medium at 2 million cells/ml.
LPS Stimulation of TNF Production by U937 Cells:
Compounds were prepared as 10 mM stock solutions in DMSO and diluted in culture medium to yield a final DMSO concentration of 0.1% in the cell assay. LPS (E coli, 100 ng/ml final concentration) was then added at a volume of 0.02 ml. After 4 hour incubation at 37° C., the amount of TNF-α released in the culture medium was quantitated by ELISA. Inhibitory potency is expressed as IC50 (μM).
In vitro whole cell assay for measuring the ability of the compounds to inhibit TNF production in human U937 cells stimulated with LPS are shown in the column identified as: • “U937 Cell IC50, uM or % inhib @ conc., (uM)”

[3] = @ 1.0 uM, TNF production, U937 cells stimulated with LPS
[4] = @ 1.0 uM, TNF production in human U937 cells stimulated with LPS
[5] = Homo sapiens, TNF production in human U937 cells stimulated with LPS
[6] = Homo sapiens, U-937, TNF production in human U937 cells stimulated with LPS

T1 sequence (Q16539 whole entry): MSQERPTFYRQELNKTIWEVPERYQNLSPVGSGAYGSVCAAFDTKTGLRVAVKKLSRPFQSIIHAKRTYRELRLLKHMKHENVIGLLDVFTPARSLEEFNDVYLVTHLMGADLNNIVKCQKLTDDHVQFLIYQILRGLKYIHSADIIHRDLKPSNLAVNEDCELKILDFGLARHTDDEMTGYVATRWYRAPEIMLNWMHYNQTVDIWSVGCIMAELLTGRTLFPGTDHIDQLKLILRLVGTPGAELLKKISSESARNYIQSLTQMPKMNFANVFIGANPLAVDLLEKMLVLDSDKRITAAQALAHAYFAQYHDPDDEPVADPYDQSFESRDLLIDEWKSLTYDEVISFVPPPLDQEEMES

SMILES	IC50 [1] [nM]	inhibition at 1 µM [2, 5] [%]	also measured
CCOC(=O)NC(=O)NCc1[nH]nc(-c2ccc(F)cc2)c1-c1ccncc1 [Example B-0152]			P38 alpha kinase % inhib @ conc. [1]: 51.0% @; U937 Cell % inhib @ conc. [2, 3]: 24.0% @
O=C(NCc1[nH]nc(-c2ccc(F)cc2)c1-c1ccncc1)Nc1ccccc1F [Example B-0162]			P38 alpha kinase % inhib @ conc. [1]: 23% @; IC50 ([2]; TNF production, human U937 cells stimulated with LPS): 2050 nM
CC(NC(=O)c1cccc(Br)c1)c1[nH]nc(-c2ccc(F)cc2)c1-c1ccncc1 (centres unmarked) [Example B-0539]	2840	21	
CC(NC(=O)c1ccno1)c1[nH]nc(-c2ccc(F)cc2)c1-c1ccncc1 (centres unmarked) [Example B-0541]	3240	28	
COc1ccc(CC(=O)NC(C)c2[nH]nc(-c3ccc(F)cc3)c2-c2ccncc2)cc1 (centres unmarked) [Example B-0549]	2220	22	
COc1cccc(CC(=O)NC(C)c2[nH]nc(-c3ccc(F)cc3)c2-c2ccncc2)c1 (centres unmarked) [Example B-0550]	2410	14	
Cc1ccc(S(=O)(=O)NC(Cc2ccccc2)C(=O)NC(C)c2[nH]nc(-c3ccc(F)cc3)c2-c2ccncc2)cc1 (centres unmarked) [Example B-0560]	2570	31	
CC(NC(=O)NCc1ccccc1)c1[nH]nc(-c2ccc(F)cc2)c1-c1ccncc1 (centres unmarked) [Example B-0580]	2230		IC50 ([2]; TNF production in human U937 cells stimulated with LPS): 840 nM
CC(NC(=O)NC(C)c1[nH]nc(-c2ccc(F)cc2)c1-c1ccncc1)c1ccccc1 (centres unmarked) [Example B-0591]	3590		U937 Cell % inhib @ conc. (uM) [2, 4]: 29.0% @
CC(NC(=O)Nc1cccc(F)c1)c1[nH]nc(-c2ccc(F)cc2)c1-c1ccncc1 (centres unmarked) [Example B-0595]	2420		U937 Cell % inhib @ conc. (uM) [2, 4]: 22.0% @
COc1ccc(NC(=O)NC(C)c2[nH]nc(-c3ccc(F)cc3)c2-c2ccncc2)c(OC)c1 (centres unmarked) [Example B-0599]	4160		U937 Cell % inhib @ conc. (uM) [2, 4]: 21.0% @
Cc1ccc(S(=O)(=O)NC(Cc2ccccc2)C(=O)NCCCc2[nH]nc(-c3ccc(F)cc3)c2-c2ccncc2)cc1 (centres unmarked) [Example B-1188]			U937 Cell % inhib @ conc. (uM) [2, 3]: 36.0% @
O=C(NCCCc1[nH]nc(-c2ccc(F)cc2)c1-c1ccncc1)NCc1ccccn1 [Example B-1304]			inhibition at 1 µM ([2]; Homo sapiens, TNF production, LPS-stimulated U937 cells): 10%
O=C(NCCCc1[nH]nc(-c2ccc(F)cc2)c1-c1ccncc1)NCCc1c[nH]cn1 [Example B-1306]			IC50 ([2]; Homo sapiens, U-937, TNF production, human U937 cells stimulated with LPS): > 1000 nM

Continued by falling IC50 [1], values first:

IC50 [1] [nM]	SMILES	inhibition at 1 µM [2, 5] [%]	also measured
1770	COc1ccc(CC(=O)NC(C)c2[nH]nc(-c3ccc(F)cc3)c2-c2ccncc2)cc1OC (centres unmarked) [Example B-0548]	28	
1570	CCCNC(=O)NC(C)c1[nH]nc(-c2ccc(F)cc2)c1-c1ccncc1 (centres unmarked) [Example B-0590]		IC50 [2, 6]: 38000 nM
1240	CC(C)=CC(=O)NC(C)c1[nH]nc(-c2ccc(F)cc2)c1-c1ccncc1 (centres unmarked) [Example B-0547]	21	
1040	CC(NC(=O)c1ccc(F)c(F)c1F)c1[nH]nc(-c2ccc(F)cc2)c1-c1ccncc1 (centres unmarked) [Example B-0546]	18	
990	C[C@@H](NC(=O)[C@H]1CCCN1)c1[nH]nc(-c2ccc(F)cc2)c1-c1ccncc1 [Example B-0428]		U937 Cell % inhib @ conc. (uM) [2, 4]: 27.0% @
910	CC(NS(=O)(=O)c1cccc2cnccc12)c1[nH]nc(-c2ccc(F)cc2)c1-c1ccncc1 (centres unmarked) [Example B-0490]	74	
440	CC(C)c1cc(C(C)C)c(C(=O)NC(C)c2[nH]nc(-c3ccc(F)cc3)c2-c2ccncc2)c(C(C)C)c1 (centres unmarked) [Example B-0497]	31	
440	CC(=O)OC(C)(C)C(=O)NC(C)c1[nH]nc(-c2ccc(F)cc2)c1-c1ccncc1 (centres unmarked) [Example B-0535]		IC50 [2, 6]: 870 nM
360	CC(NS(C)(=O)=O)c1[nH]nc(-c2ccc(F)cc2)c1-c1ccncc1 (centres unmarked) [Example B-0573]		IC50 [2, 6]: 1700 nM
260	CC(NC(=O)N1CCCC1)c1[nH]nc(-c2ccc(F)cc2)c1-c1ccncc1 (centres unmarked) [Example B-0581]		IC50 [2, 6]: 2170 nM
230	CC(NS(=O)(=O)C=Cc1ccccc1)c1[nH]nc(-c2ccc(F)cc2)c1-c1ccncc1 (centres unmarked) [Example B-0565]		IC50 [2, 6]: 590 nM
